Results from patent US12600732B2, “Bifunctional compounds for degrading BTK via ubiquitin proteosome pathway” (NURIX THERAPEUTICS, INC., priority 2019, dated 2026).

Tests used:
BTK = target: T1, BTK (Mus musculus, UniProt P35991); test: In vivo degradation of BTK in mouse PD experiments with oral dosing
T1 construct: from tissue; host or cells: mouse blood B cells / splenocytes (CD-1 or BALB/c)
Experimental: A method of determining the pharmacodynamic profile of BTK degraders was performed by dosing either CD-1 or BALB/c mice with CTM. The CTM was prepared in a suitable formulation and was administered via oral gavage (PO) at a suitable dose level and frequency as informed by prior pharmacokinetic and tolerability studies. Following administration of CTM, BTK levels in blood or splenocytes are measured using flow cytometry or HTRF. For assessment of BTK levels via flow cytometry, either whole blood or splenocytes were first treated with ACK RBC lysis buffer to facilitate lysing of red blood cells. Remaining cells were then stained with fluorophore-conjugated antibodies against CD45, TCR beta and CD45R (B220). Cell pellets were washed with 1×PBS, fixed, and permeabilized for twenty-four hours with Foxp3/Transcription Factor Fixation/Permeabilization Kit. Cells were then stained intracellularly with unconjugated BTK antibody and detected with a fluorophore-conjugated secondary antibody. Stained cells were run on an Attune N×T Acoustic Focusing Flow Cytometer (Thermo-Fisher A29004), and data was analyzed using FlowJo (v10.5.3) and GraphPad Prism (v7.00) software. Lymphocytes were gated for B cells defined as CD45+ TCR beta−B220+ and T cells as CD45+ TCR beta+B220−. The BTK geometric mean fluorescence intensity (MFI) was calculated for B and T cells. Percent BTK degradation for each compound-treated sample was calculated using the equation described below: % Degradation=100*(Treated sample B cell BTK MFI-treated sample T cell BTK MFI)/Vehicle B cell BTK MFI-Vehicle T cell BTK MFI)
This example evaluates in vivo activity of BTK CTMs via a direct mouse PD measurement following oral dosing
Screens were completed at 90 mg/kg for six hours, and then changed to lower doses/longer time points after seeing strong BTK degradation activity with an initial set of compounds. This assay was useful in selecting compounds for in vivo efficacy experiments.

TMD8 C481S cells = test: Cell viability assay (CellTiter-Glo), TMD8 C481S cells; conditions: for EC50: Homo sapiens, TMD8, 72 h; for EMAX (% viable cells): TMD8 C481S cells, treatment time 72 h
Experimental: Cell viability was determined using CellTiter-Glo 2.0 Luminescent Cell Viability Assay (Promega, G9242), which quantitates the amount of ATP present as a proxy for the number of viable cells in culture. Cells were plated with densities between 2000-4000 cells per well in 96-well plates. […] CellTiter-Glo reagent was added to cells at a dilution of 1:20, and the plate was incubated ten minutes at room temperature prior to reading the luminescence signal using an EnVision plate reader. Controls included cells treated with DMSO and wells that contained no cells, only media. Background luminescence signal was determined by control wells containing no cells, only media, and was then subtracted from all sample wells. Luminescence values were then normalized to DMSO-treated wells and reported at proportion viable cells.

TMD8 cells = test: Cell viability assay (CellTiter-Glo), TMD8 cells; conditions: for EC50: Homo sapiens, TMD8, 72 h; for EMAX (% viable cells): TMD8 cells, treatment time 72 h
[1] = oral dose 3 mg/kg, 6 h, blood, flow cytometry
[2] = oral dose 30 mg/kg, 24 h, blood, flow cytometry
[3] = oral dose 90 mg/kg, 6 h, splenocytes, HTRF
[4] = oral dose 30 mg/kg, 24 h, splenocytes, HTRF

T1 sequence (P35991 whole entry): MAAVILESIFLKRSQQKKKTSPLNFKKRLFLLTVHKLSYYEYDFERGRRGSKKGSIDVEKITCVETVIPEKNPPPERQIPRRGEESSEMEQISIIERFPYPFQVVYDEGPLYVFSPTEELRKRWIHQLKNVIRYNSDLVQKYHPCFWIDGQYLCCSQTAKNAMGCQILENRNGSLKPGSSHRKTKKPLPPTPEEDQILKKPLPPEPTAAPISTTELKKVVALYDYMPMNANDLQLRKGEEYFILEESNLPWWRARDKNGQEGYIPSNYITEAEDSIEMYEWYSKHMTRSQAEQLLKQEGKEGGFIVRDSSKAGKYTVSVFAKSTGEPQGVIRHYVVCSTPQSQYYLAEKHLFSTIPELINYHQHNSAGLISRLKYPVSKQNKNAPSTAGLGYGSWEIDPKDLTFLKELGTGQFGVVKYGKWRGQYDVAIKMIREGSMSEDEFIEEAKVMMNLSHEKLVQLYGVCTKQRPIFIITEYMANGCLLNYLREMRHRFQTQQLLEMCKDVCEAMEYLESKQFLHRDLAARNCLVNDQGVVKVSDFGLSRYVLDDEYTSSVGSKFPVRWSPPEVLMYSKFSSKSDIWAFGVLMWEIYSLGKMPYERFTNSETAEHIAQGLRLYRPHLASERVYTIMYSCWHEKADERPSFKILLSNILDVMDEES

SMILES	EC50 (TMD8 C481S cells)	EMAX (% viable cells) (TMD8 C481S cells)	EC50 (TMD8 cells)	EMAX (% viable cells) (TMD8 cells)	% BTK Remaining (BTK; [3])	further results
CN1CCN([C@H]2CCCN(c3cnc(C(N)=O)c(Nc4ccc(N5CCC6(CCN(c7ccc8c(c7)C(=O)N(C7CCC(=O)NC7=O)C8=O)CC6)CC5)nc4)n3)C2)C1=O (stereo partly shown) [Compound 80]	125 nM	78%	45.2 nM	45%		% BTK Remaining (BTK; oral dose 0.3 mg/kg, 24 h, blood, flow cytometry): 88%; % BTK Remaining (BTK; oral dose 0.3 mg/kg, 24 h, splenocytes, flow cytometry): 115%; % BTK Remaining (BTK; [1]): 96%; % BTK Remaining (BTK; oral dose 3 mg/kg, 24 h, blood, flow cytometry): 77%; % BTK Remaining (BTK; oral dose 3 mg/kg, 24 h, splenocytes, flow cytometry): 111%; % BTK Remaining (BTK; oral dose 10 mg/kg, 24 h, blood, flow cytometry): 59%; % BTK Remaining (BTK; oral dose 10 mg/kg, 24 h, splenocytes, flow cytometry): 74%; % BTK Remaining (BTK; [2]): 52%; % BTK Remaining (BTK; oral dose 30 mg/kg, 24 h, splenocytes, flow cytometry): 69%; % BTK Remaining (BTK; oral dose 90 mg/kg, 24 h, blood, flow cytometry): 48%; % BTK Remaining (BTK; oral dose 90 mg/kg, 24 h, splenocytes, flow cytometry): 65%
CN1CCN([C@@H]2CCCN(c3cnc(C(N)=O)c(Nc4ccc(N5CCC6(CCN(Cc7ccc8c(c7)CN([C@@H]7CCC(=O)NC7=O)C8=O)CC6)CC5)cc4)n3)C2)C1=O [Compound 210]	5.29 nM	40%	5.61 nM	32%		
CN1CCN([C@@H]2CCCN(c3cnc(C(N)=O)c(Nc4cnn(C5CN(CC6CCN(c7ccc8c(c7)C(=O)N([C@@H]7CCC(=O)NC7=O)C8=O)CC6)C5)c4)n3)C2)C1=O [Compound 209]	55.2 nM	44%	7.41 nM	49%		
CN1CCN([C@@H]2CCCN(c3cnc(C(N)=O)c(Nc4ccc(N5CCN(CC6CN(c7ccc8c(c7)C(=O)N(C7CCC(=O)NC7=O)C8=O)C6)CC5)cc4)n3)C2)C1=O (stereo partly shown) [Compound 60]	8.37 nM	26%	0.97 nM	20%	3%	
Cn1cc(Nc2nc(N3CCC[C@@H](N4CC5(CN(CC6CCN(c7ccc8c(c7)C(=O)N(C7CCC(=O)NC7=O)C8=O)CC6)C5)OC4=O)C3)cnc2C(N)=O)cn1 (stereo partly drawn) [compound 211, 5-[(3R)-3-[2-({1-[2-(2,6-dioxopiperidin-3-yl)-1,3-dioxoisoindol-5-yl]piperidin-4-yl}methyl)-6-oxo-5-oxa-2,7-diazaspiro[3.4]octan-7-yl]piperidin-1-yl]-3-[(1-methylpyrazol-4-yl)amino]pyrazine-2-carboxamide]	113 nM	28%	11.7 nM	30%		% BTK Remaining (BTK; [1]): 74%
CN1CCN([C@@H]2CCCN(c3cnc(C(N)=O)c(Nc4ccc(C5CCN(CC6CN(c7ccc8c(c7)C(=O)N(C7CCC(=O)NC7=O)C8=O)C6)CC5)cc4)n3)C2)C1=O (stereo partly shown) [Compound 54]	7.11 nM	6%	0.61 nM	13%	1%	
CN1CCN([C@@H]2CCCN(c3cnc(C(N)=O)c(Nc4ccc(C5CCN(c6ccc7c(c6)C(=O)N(C6CCC(=O)NC6=O)C7=O)CC5)cc4)n3)C2)C1=O (stereo partly shown) [Compound 47]	43.5 nM	61%	3.83 nM	39%	80%	
CN1CCN([C@@H]2CCCN(c3cnc(C(N)=O)c(Nc4ccc(C5CCN(C[C@H]6CCN(c7ccc8c(c7)C(=O)N([C@@H]7CCC(=O)NC7=O)C8=O)C6)CC5)nc4)n3)C2)C1=O [Compound 207]	0.009 nM	54%				% BTK Remaining (BTK; [4]): 46%
CN1CCN([C@@H]2CCCN(c3cnc(C(N)=O)c(Nc4ccc(C5CCN(C[C@H]6CCN(c7ccc8c(=O)n(C9CCC(=O)NC9=O)ccc8c7)C6)CC5)cc4)n3)C2)C1=O (stereo partly shown) [Compound 115]	1.93 nM	16%	2.74 nM	13%		% BTK Remaining (BTK; [2]): 30%
Cn1cc(Nc2nc(N3CCC[C@@H](N4CC5(CN(C6CCN(c7ccc8c(c7)C(=O)N([C@H]7CCC(=O)NC7=O)C8=O)CC6)C5)OC4=O)C3)cnc2C(N)=O)cn1 [Compound 212]	63 nM	44%	15.1 nM	42%		% BTK Remaining (BTK; [1]): 78%
CN1CCN([C@@H]2CCCN(c3cnc(C(N)=O)c(Nc4ccc(N5CCN(CC6CCN(c7ccc8c(c7)C(=O)N(C7CCC(=O)NC7=O)C8=O)CC6)CC5)cc4)n3)C2)C1=O (stereo partly shown) [Compound 49]	3.86 nM	23%	0.61 nM	28%	<1%	
CN1CCN([C@@H]2CCCN(c3cnc(C(N)=O)c(Nc4ccc(N5CCN(C[C@@H]6CCN(c7ccc8c(c7)C(=O)N(C7CCC(=O)NC7=O)C8=O)C6)CC5)cc4)n3)C2)C1=O (stereo partly shown) [Compound 59]	2.03 nM	52%	0.15 nM	31%	7%	
CN1CCN([C@@H]2CCCN(c3cnc(C(N)=O)c(Nc4ccc(N5CCN(CCC6CCN(c7ccc8c(c7)C(=O)N(C7CCC(=O)NC7=O)C8=O)CC6)CC5)cc4)n3)C2)C1=O (stereo partly shown) [Compound 40]						% BTK Remaining (BTK; oral dose 1 mg/kg, 6 h, splenocytes, HTRF): 82%
CN1CCN([C@@H]2CCCN(c3cnc(C(N)=O)c(Nc4ccc(C5(C)CCN(c6ccc7c(c6)C(=O)N(C6CCC(=O)NC6=O)C7=O)CC5)cc4)n3)C2)C1=O (stereo partly shown) [Compound 58]					89%	
CN1CCN([C@@H]2CCCN(c3cnc(C(N)=O)c(Nc4ccc(N5CCN(CCC6CN(c7ccc8c(c7)C(=O)N(C7CCC(=O)NC7=O)C8=O)C6)CC5)cc4)n3)C2)C1=O (stereo partly shown) [Compound 43]					4%	
CN1CCN([C@@H]2CCCN(c3cnc(C(N)=O)c(Nc4ccc(C5CN(CC6CCN(c7ccc(-c8nn(C9CCC(=O)NC9=O)c(=O)n8C)cc7)CC6)C5)cc4)n3)C2)C1=O (stereo partly shown) [Compound 119]						% BTK Remaining (BTK; [4]): 77%
NC(=O)c1ncc(N2CCC[C@@H](N3CCCC3=O)C2)nc1Nc1ccc(N2CC(C3CCN(c4ccc5c(c4)C(=O)N(C4CCC(=O)NC4=O)C5=O)CC3)C2)nc1 (stereo partly shown) [Compound 168]						% BTK Remaining (BTK; [4]): 84%
Cc1cc(Nc2nc(N3CCC[C@@H](N4CCC5(CCN(CC6CCN(c7ccc8c(c7)C(=O)N(C7CCC(=O)NC7=O)C8=O)CC6)CC5)C4=O)C3)cnc2C(N)=O)sn1 (stereo partly drawn) [compound 205, 5-[(3R)-3-[8-({1-[2-(2,6-dioxopiperidin-3-yl)-1,3-dioxoisoindol-5-yl]piperidin-4-yl}methyl)-1-oxo-2,8-diazaspiro[4.5]decan-2-yl]piperidin-1-yl]-3-[(3-methyl-1,2-thiazol-5-yl)amino]pyrazine-2-carboxamide]						% BTK Remaining (BTK; [4]): 66%
CN1CCN([C@@H]2CCCN(c3cnc(C(N)=O)c(Nc4ccc(C5CCN(CC6CCN(c7ccc(OC8CCC(=O)NC8=O)cn7)CC6)CC5)cc4)n3)C2)C1=O (stereo partly shown) [Compound 165]						% BTK Remaining (BTK; [4]): 29%
Cn1cc(Nc2nc(N3CCC[C@@H](N4CCC5(CN(CC6CCN(c7ccc8c(=O)n(C9CCC(=O)NC9=O)ccc8c7)CC6)C5)C4=O)C3)cnc2C(N)=O)cn1 (stereo partly shown) [Compound 145]						% BTK Remaining (BTK; [2]): 100%
NC(=O)c1ncc(N2CCC(F)(F)C(CO)C2)nc1Nc1ccc(C2CCN(C[C@H]3CCN(c4ccc5c(c4)C(=O)N(C4CCC(=O)NC4=O)C5=O)C3)CC2)cc1 (stereo partly shown) [Compound 175]						% BTK Remaining (BTK; [4]): 62%
NC(=O)c1ncc(N2CCC[C@@H](N3CCOC3=O)C2)nc1Nc1ccc(C2CCN(CC3CCN(c4ccc5c(=O)n(C6CCC(=O)NC6=O)ccc5c4)CC3)CC2)cc1 (stereo partly shown) [Compound 153]						% BTK Remaining (BTK; [2]): 33%
